Results as given in US20020049173A1, “Alteration of cellular behavior by antisense modulation of mRNA processing” (priority 1999, published 2002).
In the oligonucleotide strings, read from the 5' end, every base follows the letter of its sugar. An asterisk marks phosphorothioate; unmarked linkages are phosphodiester. Other units and linkages are bracketed, terminal groups are in braces. A string of capitals states the bases alone. e = 2'-O-(2-methoxyethyl) (MOE); [5mC] = 5-methylcytosine

Key:
[1] = test system: Human IL-5 receptorα membrane form mRNA; test: Human IL-5 receptorα membrane form mRNA expression (18 hr); type: cell-based; parameters: % INHIB'N, human IL-5 receptorα membrane form mRNA / % of CONTROL, human IL-5 receptorα membrane form mRNA: concentration or dose not given beside the values; details: 18 hr
From the text: mRNA transcripts encoding the membrane form of the human IL-5 receptorα contain exons 1-10 and 12-14. Exon 11 is spliced out. It is, therefore, possible to target sequences in exons 1-10 which are common to both soluble and membrane forms of the receptor, or to selectively target sequences only present in the membrane form (exons 12-14). Oligonucleotides were also designed to target various intron/exon boundaries downstream of exon 11, with the intention of preventing successful splicing out of exon 11 and thus redirecting splice products away from the membrane form and in favor of the soluble form of IL-5 receptorα.
(§1) A series of oligonucleotides were designed to target various splice sites or (intron-exon boundaries) in the IL-5 receptor mRNA.

[2] = test system: Human IL-5 receptorα soluble form mRNA; test: Human IL-5 receptorα soluble form transcript, Northern blot; type: cell-based; details: Northern blot analysis
From the text: ISIS 16746, 16748 and 16755 inhibited IL-5 receptor mRNA expression by over 50% and are therefore preferred in this assay. […] Thus it is believed that ISIS 16755 redirects splicing in favor of the membrane form, as is consistent with data obtained with other non-RNAse H (e.g., uniform 2′-methoxyethoxy) oligonucleotides targeted to splice sites.

[3] = test system: Human IL-5 receptorα; test: Human IL-5 receptorα protein expression on the cell surface (36 hr), TF-1 cells; type: cell-based; parameters: % INHIB, human IL-5 receptorα protein on the cell surface / % of CONTROL, human IL-5 receptorα protein on the cell surface: concentration or dose not given beside the values; details: 36 hr
From the text: as §1
ISIS 16746, 16748, 16755 and 16758 inhibited human IL-5 receptorα protein by over 50% in this assay and are therefore preferred. ISIS 16758 and 16755 were chosen for further study.

[4] = test system: human bcl-x mRNA; test: Total bcl-x mRNA and bcl-xs/bcl-xl ratio in A549 cells, RNase protection; type: cell-based
From the text: In accordance with the present invention, a series of oligonucleotides were designed to target different regions of human bcl-x RNA, using published sequences (Boise, L. H., et al., 1993, Cell 74, 597-608; Genbank Accession No. L20121, locus name “HSBCLXL,” incorporated herein as SEQ ID NO: 39). Antisense oligonucleotides were designed to target areas of exon 1 and exon 2 of human bcl-x, particularly around the exon 1/exon 2 splice site and in sequence regions present in bcl-xl but not in bcl-xs. All backbone linkages are phosphorothioates; All 2′MOE cytosines are 5-methylcytosines.
Oligonucleotides were evaluated for their respective effects on bcl-xs and bcl-xl3 mRNA levels in A549 cells along with total bcl-x mRNA levels, using the RIBOQUANT™ RNase protection kit (Pharmingen, San Diego Calif.). All assays were performed according to manufacturer's protocols.
A “walk” was done in this region with 20mer 2′-MOE phosphorothioate oligonucleotides targeted to sequences whose 5′ ends were 24, 26, 29, 31, 33, 37, 39, 41, 43, 44, 45 and 47 bases upstream of the splice site. These oligonucleotides were screened as before at a dose of 200 nM oligonucleotide for effect on short and long bcl-x transcripts.

[5] = test system: bax mRNA; test: bax mRNA by RNAse protection assay; type: cell-based
Method: ISIS 22783 was tested by RNAse protection assay for ability to inhibit bax, another apoptotic gene. It had no effect on bax mRNA levels.

[6] = test system: murine bcl-x mRNA; test: bcl-xs mRNA induction in mouse cell lines bEND, AML12 and Hepa; type: cell-based
From the text: (§2) ISIS 22783 is also fully complementary to the murine bcl-x mRNA which makes it useful for animal studies.

[7] = test system: murine bcl-x mRNA; test: bcl-xs mRNA expression in vivo in mouse liver; details: preliminary experiments
From the text: as §2

[8] = test system: A549 cells; test: Sensitization of A549 cells to UV-induced cell death, propidium iodide staining; type: cell-based, human; details: 100 nM oligo
Method: A549 cells were treated with 100 nM ISIS 22783 or the 5-mismatch ISIS 26080 and exposed to ultraviolet (UV) radiation. The percent apoptotic cells was quantitated by propidium iodide staining according to standard methods.

[9] = test system: A549 cells; test: Sensitization of A549 cells to cisplatinum-induced cell death, propidium iodide staining; type: cell-based, human; details: 100 nM oligo
Method: A549 cells were treated with 100 nM ISIS 22783 or the 5-mismatch ISIS 26080 and cisplatinum at various doses. The percent apoptotic cells was quantitated by propidium iodide staining according to standard methods.

[10] = test system: A549 cells; test: Sensitization of A549 cells to taxol-induced cell death, propidium iodide staining; type: cell-based, human; details: 100 nM oligo
Method: A549 cells were treated with 100 nM ISIS 22783 or the 5-mismatch ISIS 26080 and taxol at various doses. The percent apoptotic cells was quantitated by propidium iodide staining according to standard methods.

[11] = test system: human bcl-x mRNA; test: Total bcl-x mRNA and bcl-xs/bcl-xl ratio in A549 cells, RNase protection; type: cell-based; remark: listed apart in the source
[12] = test system: E-selectin mRNA (Type III polyadenylation signal and site); test: E-selectin transcript forms by Northern blot in TNF-α-induced HUVEC; type: cell-based, human; details: increasing oligonucleotide dose, TNF-α 2 hours
Method: (§3) HUVEC (Clonetics, San Diego, Calif.) were cultivated in endothelial basal media supplemented with 10% fetal bovine serum. Cells were treated with oligonucleotides as described previously (Chiang, 1991, J. Biol. Chem. 27:18162-18171; Vickers, 2000, Nucleic Acids Res. 28:1340-1347). Briefly, cells were incubated with a mixture of Lipofectin (Gibco BRL, Gaithersburg, Md.) and oligonucleotide for 4 hours. Cells were incubated for 2-24 hours, then treated with 5 ng/ml TNF-α for 2-3 hours to induce expression of E-selectin. Cells were then washed extensively with phosphate buffered saline (PBS), fresh complete media was added and cells were incubated at 37° C. until harvested.
(§4) Total RNA was harvested from HUVEC at various times following TNF-α induction using a ToTALLY RNA kit (Ambion) according to the manufacturer's protocol). For Northern blots, RNA was separated on a 1.2% agarose gel containing 1.1% formaldehyde, then transferred to nylon membranes. Blots were hybridized with [^32P]-dCTP random prime labeled cDNA probes specific for E-selectin or […] (G3PDH) for 2 hours in Rapid-hyb solution (Amersham). Blots were washed with 2×SSC containing 0.1% SDS at room temperature, followed by 0.1×SSC containing 0.1% SDS at 60° C. Quantitation of RNA expression was performed using a Molecular Dynamics PhosphorImager. Anchored reverse transcriptase polymerase chain reaction (RT/PCR) was performed essentially as described by Chu et al. (supra.).
HUVEC were treated with 2′-O-methoxyethyl (MOE)/phosphorothioate antisense oligonucleotides directed to the Type III polyadenylation signal and site (Table 1A) as described above. After about 24 hours, cells were treated with TNF-α to induce E-selectin expression. Cells were harvested after 2 hours and RNA was isolated. E-selectin expression was analyzed by Northern blotting. […] With increasing oligonucleotide dose, the longer Type III message decreased while a shorter message increased (FIG. 2). This shorter message most likely represents a combination of Type I and II messages, because the Type II message is just 158 bases longer than the Type I message, and the difference in sizes cannot be resolved on the gel which was used.

[13] = test system: E-selectin mRNA; test: Stability of E-selectin messages after TNF-α removal (Northern blot, HUVEC); type: cell-based, human; details: 200 nM
Method: as §3
as §4, with “Anchored reverse transcriptase polymerase chain reaction (RT/PCR) was performed essentially as described by Chu et al. (supra.).” left out

[14] = test system: E-selectin; test: E-selectin cell surface protein expression by flow cytometry in HUVEC; type: cell-based, human
Method: as §3
Following oligonucleotide treatment, cells were detached with D-PBS (without calcium and magnesium) supplemented with 4 mM EDTA. Cells were centrifuged at 5,000 rpm for 1 minute and washed in 2% bovine serum albumin (BSA), 0.2% sodium azide in D-PBS at 4° C. E-selectin-phycoerythrin antibody (Ancell) was then added at 1:100 in 0.1 ml of the above buffer, and incubated for 30 min at 4° C. in the dark. Cells were washed again as above and resuspended in 0.3 ml of PBS buffer with 0.5% formaldehyde. Cells were analyzed for E-selectin expression on a FACScan (Becton-Dickinson). Results are expressed as percentage of control expression based upon the mean fluorescence intensity.
The treated cells were stimulated with TNF-α for 2 hours, then analyzed for E-selectin protein expression by flow cytometry. […] Results at the protein level are not as dramatic as at the RNA level due to the fact that the Type III message remains the predominant RNA species present (FIG. 2). Any change in protein stability resulting from the presence of the type I/II message would likely be partially masked by the more abundant Type III RNA.

[15] = test system: E-selectin mRNA; test: Non-quantitative RT-PCR of E-selectin Type I, II and III transcripts in HUVEC; type: cell-based, human; details: relative to untreated cells, 200 nM stated for ISIS 106344
Method: as §4
To determine if processing could be controlled more specifically, oligonucleotides were also designed to the upstream polyadenylation signals. Non-quantitative RT-PCR was used to distinguish among the three forms of the message. In the absence of oligonucleotide, all three types of transcript were detected. […] This difference may be due to variation in the efficiency of PCR amplification on the varying length products, with the shorter Type I and II messages being more efficiently amplified than the Type III product. […] To determine if the effects of ISIS 106344 were unique, antisense oligonucleotides were designed to the Type I and Type II polyadenylation sites.
To evaluate whether treatment with two oligonucleotides would result in the production of a single species of E-selectin message, HUVEC were treated with ISIS 106344, and either ISIS 135568 or ISIS 135570 (150 nM each). […] Cells were also treated with both ISIS 135568 and ISIS 135570.

## ISIS 16755: GAACACTTACATTTTACAGA, SEQ ID 34; E12/I12; 2′-MOE pattern not visible (antisense eG*eA*eA*e[5mC]*eA*e[5mC]*eT*eT*eA*e[5mC]*eA*eT*eT*eT*eT*eA*e[5mC]*eA*eG*eA)
[1]
  % INHIB'N, human IL-5 receptorα membrane form mRNA: over 50%
[2]
  inhibition of the soluble form transcript: without significantly inhibiting the soluble form
[3]
  % INHIB, human IL-5 receptorα protein on the cell surface: over 50%

## ISIS 22783: CTGGATCCAAGGCTCTAGGT, SEQ ID 44; fully 2′-MOE, full-phosphorothioate; bcl-xl Exon 1L 664-683 (e[5mC]*eT*eG*eG*eA*eT*e[5mC]*e[5mC]*eA*eA*eG*eG*e[5mC]*eT*e[5mC]*eT*eA*eG*eG*eT)
[4]; A549 cells
  time after treatment at which bcl-xs induction with concurrent bcl-xL reduction begins: 2 to 4 h
[4]; A549 cells (Table 13)
  % CRTL total bcl-x: without reducing the total bcl-x mRNA level
[4]; A549 cells, no oligo 17.56
  bcl-xs/bcl-xl (%): 293%
[4]; Oligo Concentration 200 (unit not given)
  approx. ratio of bcl-xs/bcl-xl: ~8.5
[5]
  effect on bax mRNA levels: no effect
[6]
  induction of bcl-xs mRNA: induction of bcl-xs mRNA
[7]
  bcl-xs mRNA expression in mouse liver: slight induction of bcl-xs mRNA expression
[8]; UV 0 mJ/M^2
  % Apoptotic cells (approx): ~2%
[8]; UV 50 mJ/M^2
  % Apoptotic cells (approx): ~4%
[8]; UV 100 mJ/M^2
  % Apoptotic cells (approx): ~33%
[8]; UV 200 mJ/M^2
  % Apoptotic cells (approx): ~27%
[9]; cisplatinum 0 μg/ml
  % Apoptotic cells (approx): ~3%
[9]; cisplatinum 1 μg/ml
  % Apoptotic cells (approx): ~6%
[9]; cisplatinum 10 μg/ml
  % Apoptotic cells (approx): ~13%
[9]; cisplatinum 50 μg/ml
  % Apoptotic cells (approx): ~27%
[10]; taxol 0 μg/ml
  % Apoptotic cells (approx): ~8%
[10]; taxol 5 μg/ml
  % Apoptotic cells (approx): ~8%
[10]; taxol 10 μg/ml
  % Apoptotic cells (approx): ~15%
[10]; taxol 30 μg/ml
  % Apoptotic cells (approx): ~26%
[11]; Oligo Concentration 100 (unit not given)
  approx. ratio of bcl-xs/bcl-xl: ~4.5
[11]; Oligo Concentration 400 (unit not given)
  approx. ratio of bcl-xs/bcl-xl: ~18

## ISIS 106344: CATAAGCACATTTATTGTCA, SEQ ID 66; uniformly 2′-MOE phosphorothioate; E-selectin Type III poly(A) signal (all 2'-MOE, all phosphorothioate, methylation of C not given here)
[12]
  longer Type III E-selectin message (Northern blot): decreased
  shorter E-selectin message (Type I and II) (Northern blot): increased
[13]
  stability of the shorter (type I/II) messages following TNF-α removal: More than half of the shorter messages remained five hours
[13]; message printed as type II
  time following TNF-α removal at which about one half of the type II message remained: ~2.5 h
[14]; TNF-α 2 hours, versus control oligonucleotide
  duration of E-selectin protein expression: sustained expression of E-selectin protein
[14]; after addition of TNF-α
  time of maximal E-selectin protein expression: four hours after addition of TNF-α
[15]
  Type I E-selectin message (RT-PCR): increased
  Type II E-selectin message (RT-PCR): increased
  Type III E-selectin message (RT-PCR): decrease
